System: hippocampal transcripts (mitochondrial pathway genes and genes associated with neurological function)
Assay: transcriptome examination using RNA-Seq, hippocampus
Type: in vivo, rat
Source text: Transcriptome Examination Using RNA-Seq Upon MARCKS Peptide Decoy Treatment
Following sacrifice, the left hippocampus was utilized for genome-wide expression profiling. […] These included Adcyap1 with fold change (FC) of 1.5, and p=0.029, Tiam1 with FC of −1.5 and p=0.028, and Filip1 with FC of −1.75 and p=0.032 (Table 1). The RT-PCR validation of the fold change of FILIP1 and Tiam1 is shown in Table 2 and Table 3, respectively.
Table 4 disclosed herein provides the major pathways in mitochondria altered in the MARCKS peptide decoy treated animals. Mitochondrial NADH dehydrogenase is a key enzyme in the oxidative phosphorylation pathway in the mitochondria. Mitochondrially encoded cytochrome c oxidase I (MT-CO1), also known as cytochrome c oxidase I (COX1), is a protein that is found in mitochondria. Cytochrome c oxidase is the component of the respiratory chain that catalyzes the reduction of oxygen to water. MT-CO1 is associated with aging. Mutations in the human MT-CO1 gene have been associated with several diseases, including neurodegenerative diseases, such as late-onset Alzheimer disease. Cytochrome b (mt-cyb) is a component of the ubiquinol-cytochrome c reductase complex (complex III or cytochrome b-c1 complex), which is a respiratory chain that generates an electrochemical potential coupled to ATP synthesis. ATP synthase F0 subunit 6 (or subunit/chain A) is a subunit of F0 complex of transmembrane F-type ATP synthase. This subunit is a key component of the proton channel, and may play a direct role in the translocation of protons across the membrane. ATP6 is a gene associated with neuropathy, ataxia, and retinitis pigmentosa. mt-ATP8 is another subunit involved in ATP biosynthetic process.
Table 5 provides the list of the genes that are directly or indirectly associated with neurological function and are with significant fold change in peptide decoy treated animals in comparison to the controls.

[1] = locus chrM: 9450-9798, vehicle 617.42

With “SEQ ID NO: 1: fusion peptide including a TAT protein transduction domain and residues surrounding two known serine phosphorylation targets (Ser159 and Ser163) within MARCKS (YGRKKRRQRRRCKRFSFKKSFKLSGFSFKK; TAT MARCKS fusion)” the “Ln (Fold Change) (M/V), Calm3” value (locus chr1: 77244168-77252808) was 1.894, the “MARCKS FPKM, Calm3” value (locus chr1: 77244168-77252808, vehicle 856.54) was 1621.94 FPKM and the “Ln (Fold Change) (M/V), Fth1” value (locus chr1: 212430422-212432741) was 1.397. The “MARCKS FPKM, Fth1” value (locus chr1: 212430422-212432741, vehicle 354.58) was 495.44 FPKM, the “Ln (Fold Change) (M/V), P97600_RAT” value (locus chr1: 249369571-249369889) was 0.7544 and the “MARCKS FPKM, P97600_RAT” value (locus chr1: 249369571-249369889, vehicle 492.68) was 371.65 FPKM. For the same substance, the “Ln (Fold Change) (M/V), Selt” value (locus chr2: 147913244-147929296) was 0.5377, the “MARCKS FPKM, Selt” value (locus chr2: 147913244-147929296, vehicle 214.44) was 115.30 FPKM and the “Ln (Fold Change) (M/V), Snap25” value (locus chr3: 124860288-124894636) was 0.8176. The “MARCKS FPKM, Snap25” value (locus chr3: 124860288-124894636, vehicle 750.47) was 613.59 FPKM, the “Ln (Fold Change) (M/V), Ywhab” value (locus chr3: 154926026-155140469) was 0.5137 and the “MARCKS FPKM, Ywhab” value (locus chr3: 154926026-155140469, vehicle 131.57) was 67.59 FPKM. For the same substance, the “Ln (Fold Change) (M/V), Sdcbp” value (locus chr5: 19822457-19849209) was 0.666, the “MARCKS FPKM, Sdcbp” value (locus chr5: 19822457-19849209, vehicle 131.61) was 87.65 FPKM and the “Ln (Fold Change) (M/V), Rraga” value (locus chr5: 105659673-105661250) was 0.4798. The “MARCKS FPKM, Rraga” value (locus chr5: 105659673-105661250, vehicle 433.02) was 207.77 FPKM, the “Ln (Fold Change) (M/V), HPCA_RAT” value (locus chr5: 148268061-148276223) was 2.229 and the “MARCKS FPKM, HPCA_RAT” value (locus chr5: 148268061-148276223, vehicle 141.44) was 315.32 FPKM. The “Ln (Fold Change) (M/V), RTN1_RAT” value (locus chr6: 94397064-94426283) was 1.726, the “MARCKS FPKM, RTN1_RAT” value (locus chr6: 94397064-94426283, vehicle 842.08) was 1453.43 FPKM and the “Ln (Fold Change) (M/V), Tuba1b” value (locus chr7: 137706855-137709839) was 0.5387. The “MARCKS FPKM, Tuba1b” value (locus chr7: 137706855-137709839, vehicle 219.23) was 118.09 FPKM, the “Ln (Fold Change) (M/V), Ywhae” value (locus chr10: 63072127-63109833) was 0.6546 and the “MARCKS FPKM, Ywhae” value (locus chr10: 63072127-63109833, vehicle 892.66) was 584.35 FPKM. The “Ln (Fold Change) (M/V), Aldoc” value (locus chr10: 64308825-64312415) was 0.5322, the “MARCKS FPKM, Aldoc” value (locus chr10: 64308825-64312415, vehicle 140.11) was 74.57 FPKM and the “Ln (Fold Change) (M/V), Ndrg2” value (locus chr15: 27338551-27347196) was 0.4224. For the same substance, the “MARCKS FPKM, Ndrg2” value (locus chr15: 27338551-27347196, vehicle 142.86) was 60.35 FPKM, the “Ln (Fold Change) (M/V), Calm-ps2” value (locus chr15: 64161641-64162753) was 0.7792 and the “MARCKS FPKM, Calm-ps2” value (locus chr15: 64161641-64162753, vehicle 383.97) was 299.19 FPKM. The “Ln (Fold Change) (M/V), Gpm6a” value (locus chr16: 39670749-39783384) was 0.5709, the “MARCKS FPKM, Gpm6a” value (locus chr16: 39670749-39783384, vehicle 311.49) was 177.84 FPKM and the “Ln (Fold Change) (M/V), Slc25a4” value (locus chr16: 49353475-49357271) was 1.571. For the same substance, the “MARCKS FPKM, Slc25a4” value (locus chr16: 49353475-49357271, vehicle 243.91) was 383.20 FPKM, the “Ln (Fold Change) (M/V), Mt3” value (locus chr19: 11284554-11286402) was 1.316 and the “MARCKS FPKM, Mt3” value (locus chr19: 11284554-11286402, vehicle 301.07) was 396.12 FPKM. For the same substance, the “Ln (Fold Change) (M/V), Non-Annotated” value (locus chrM: 67-1025) was 0.8288, the “MARCKS FPKM, Non-Annotated” value (locus chrM: 67-1025, vehicle 69491.10) was 57596.80 FPKM and the “Ln (Fold Change) (M/V), Non-Annotated” value (locus chrM: 1093-2664) was 0.6921. The “MARCKS FPKM, Non-Annotated” value (locus chrM: 1093-2664, vehicle 53178.50) was 36802.40 FPKM, the “Ln (Fold Change) (M/V), Mitochondrial NADH dehydrogenase subunit 1 mt-nd1” value (locus chrM: 2739-3831) was 0.7838 and the “MARCKS FPKM, Non-Annotated” value (locus chrM: 2739-3831, vehicle 51.90) was 0.00 FPKM. The “MARCKS FPKM, Non-Annotated” value (locus chrM: 2739-3831, vehicle 126.72) was 0.00 FPKM, the “MARCKS FPKM, Mitochondrial NADH dehydrogenase subunit 1 mt-nd1” value (locus chrM: 2739-3831, vehicle 1879.89) was 1473.47 FPKM and the “Ln (Fold Change) (M/V), Non-Annotated” value (locus chrM: 2739-3831, vehicle FPKM 51.90) was 0. For the same substance, the “Ln (Fold Change) (M/V), Non-Annotated” value (locus chrM: 2739-3831, vehicle FPKM 126.72) was 0, the “Ln (Fold Change) (M/V), Mitochondrial NADH dehydrogenase subunit 2 mt-nd2” value (locus chrM: 3903-5008) was 0.5713 and the “MARCKS FPKM, Mitochondrial NADH dehydrogenase subunit 2 mt-nd2” value (locus chrM: 3903-5008, vehicle 1965.45) was 1122.94 FPKM. The “Ln (Fold Change) (M/V), Cytochrome c oxidase subunit I mt-co1” value (locus chrM: 5322-6933) was 0.7397, the “Ln (Fold Change) (M/V), Non-Annotated” value (locus chrM: 5322-6933) was 0 and the “MARCKS FPKM, Non-Annotated” value (locus chrM: 5322-6933, vehicle 321.91) was 0.00 FPKM. For the same substance, the “MARCKS FPKM, Cytochrome c oxidase subunit I mt-co1” value (locus chrM: 5322-6933, vehicle 9734.89) was 7200.89 FPKM, the “Ln (Fold Change) (M/V), Cytochrome c oxidase subunit 2 mt-co2” value (locus chrM: 7005-7689) was 0.6512 and the “MARCKS FPKM, Cytochrome c oxidase subunit 2 mt-co2” value (locus chrM: 7005-7689, vehicle 5773.44) was 3759.79 FPKM. The “Ln (Fold Change) (M/V), ATP synthase F0 subunit 6 mt-ATP6” value (locus chrM: 7757-9382) was 0.5529, the “Ln (Fold Change) (M/V), ATP synthase F0 subunit 8 mt-ATP8” value (locus chrM: 7757-9382) was 0.7137 and the “Ln (Fold Change) (M/V), Cytochrome c oxidase subunit 3 mt-co3” value (locus chrM: 7757-9382) was 0.5326. For the same substance, the “MARCKS FPKM, ATP synthase F0 subunit 6 mt-ATP6” value (locus chrM: 7757-9382, vehicle 3257.55) was 1801.13 FPKM, the “MARCKS FPKM, ATP synthase F0 subunit 8 mt-ATP8” value (locus chrM: 7757-9382, vehicle 3627.88) was 2589.08 FPKM and the “MARCKS FPKM, Cytochrome c oxidase subunit 3 mt-co3” value (locus chrM: 7757-9382, vehicle 5137.18) was 2736.25 FPKM. The “Ln (Fold Change) (M/V), Mitochondrial NADH dehydrogenase subunit 3 mt-nd3” value (locus chrM: 9450-9798) was 0.5255, the “Ln (Fold Change) (M/V), NU3M_RAT” value (locus chrM: 9450-9798) was 0.5255 and the “MARCKS FPKM, Mitochondrial NADH dehydrogenase subunit 3 mt-nd3” value [1] was 324.46 FPKM. For the same substance, the “MARCKS FPKM, NU3M_RAT” value [1] was 324.46 FPKM, the “Ln (Fold Change) (M/V), Mitochondrial NADH dehydrogenase subunit 4 mt-nd4” value (locus chrM: 9869-11537) was 0.6903 and the “Ln (Fold Change) (M/V), NADH dehydrogenase subunit 4L mt-ND4L” value (locus chrM: 9869-11537) was 0.7182. For the same substance, the “MARCKS FPKM, Mitochondrial NADH dehydrogenase subunit 4 mt-nd4” value (locus chrM: 9869-11537, vehicle 2440.82) was 1684.95 FPKM, the “MARCKS FPKM, NADH dehydrogenase subunit 4L mt-ND4L” value (locus chrM: 9869-11537, vehicle 5804.14) was 4168.41 FPKM and the “Ln (Fold Change) (M/V), Mitochondrial NADH dehydrogenase subunit 5 mt-nd5” value (locus chrM: 11735-14061) was 0.8563. For the same substance, the “Ln (Fold Change) (M/V), Mitochondrial NADH dehydrogenase subunit 6 mt-nd6” value (locus chrM: 11735-14061) was 0.4947, the “MARCKS FPKM, Mitochondrial NADH dehydrogenase subunit 6 mt-nd6” value (locus chrM: 11735-14061, vehicle 1073.10) was 530.91 FPKM and the “MARCKS FPKM, Mitochondrial NADH dehydrogenase subunit 5 mt-nd5” value (locus chrM: 11735-14061, vehicle 2920.80) was 2501.19 FPKM. The “Ln (Fold Change) (M/V), Cytochrome b (mt-cyb)” value (locus chrM: 14135-15278) was 0.7536, the “MARCKS FPKM, Cytochrome b (mt-cyb)” value (locus chrM: 14135-15278, vehicle 2792.49) was 2104.37 FPKM and the “Ln (Fold Change) (M/V), Gdi1” value (locus chrX: 160299116-160305777) was 0.6667. The “MARCKS FPKM, Gdi1” value (locus chrX: 160299116-160305777, vehicle 124.22) was 82.82 FPKM.
